Results reported in patent US20240059727A1, “METHOD OF MAKING NICOTINAMIDE RIBOFURANOSIDE SALTS BY SALT METATHESIS, THE CRYSTALLINE FORM OF ITS TOSYLATE SALT AND THE CO-CRYSTALLIZED FORM OF ITS CHLORIDE:IODIDE SALT” (BIOSYNTH AG, priority 2021, published 2024).

Assay: Solubility in methanol
Conditions: volume of methanol per 1 g salt; lower volume = better solubility

| Molecule | methanol needed for dissolving 1 g of the salt [mL] |
| --- | --- |
| NC(=O)c1ccc[n+](C2OC(CO)C(O)C2O)c1.[Br-] [NR·Br, nicotinamide-β-D-ribofuranoside bromide] | 50 |
| NC(=O)c1ccc[n+]([C@@H]2O[C@H](CO)[C@@H](O)[C@H]2O)c1.[Cl-] [NR·Cl, nicotinamide-β-D-ribofuranoside chloride] | 40 |
| nicotinamide-β-D-ribofuranoside tosylate [NR·p-tosylate] | 15 |
